Source: patent US11155580B2, “Modified proteins and methods of use thereof” (YALE UNIVERSITY, priority 2013, dated 2021)
Entries after “also recorded” stand apart in the source; their conditions may differ. Where a SMILES comes first, the peptide text is derived from it. Where no end group is shown, it is not given here. The star is where a group is joined. X1 = CCN(CC)c1ccc2c(-c3ccc(S(=O)(=O)*)cc3S(=O)(=O)[O-])c3ccc(=[N+](CC)CC)cc-3oc2c1; fluorescein = fluorescein label; rhodamine = not defined here

Tests used:
GR★-GFP = assay: GIGT, transient transfection with GR★-GFP; type: cell-based; settings: 500 nM, 30 min, HeLa cells
Protocol: Cells were plated (10,000 cells/well) onto 96-well glass bottom plates (Matrical Bioscience, #MGB096-1-2-LG-L) in full DMEM (HeLa) or full McCoy's 5A (U205) media and allowed to adhere overnight. […] Cells were allowed to transfect for 6 h at 37° C. under 5% CO2 before removing transfection media and replenishing growth media. Image analysis of GIGT using Cell Profiler. Cell image files were loaded into a customizable CellProfiler7 ‘pipeline’ as individual GFP (green) and Hoechst (blue) channels, and converted to grayscale. Nuclei were identified and segmented from the gray Hoechst channel based on Otsu three-class thresholding, with pixels in the middle intensity class assigned to background. Clumped objects were individually distinguished using ‘Laplacian of Gaussian’ modeling and separated by ‘shape’. […] The ratio of mean intensities of the nuclear region divided by the cytosolic region of the GFP image was measured for every cell examined, and 40-80 transfected cells from 15-25 images were acquired for each treatment.
Cells were allowed to incubate in the presence of ligand for 30 min at 37° C. under 5% CO2. […] Fluorescence illumination was initiated using an EXFO X-cite Series 120 Hg arc lamp. […] Fluorescence intensities of individual cells were quantified using the image analysis algorithm CellProfiler.

HeLa cells [1] = assay: Colocalization of rhodamine and fluorescein labeled miniature proteins and peptides; type: cell-based; settings: 1 μM each, 30 min, 37° C.
Protocol: HeLa cells were treated with a mixture of rhodamine—(indicated by the superscript R) and fluorescein—(indicated by the superscript F)—labeled miniature protein or peptide (1 μM each) for 30 min at 37° C., washed, and then imaged using confocal microscopy. […] The remaining molecules show high fluorescence, and molecules sharing the same sequence (but different labels) show high degrees of overlap, with R>0.68. The amino acid sequence of Arg8 is provided in SEQ ID NO:68.
Colocalization between rhodamine and fluorescein labeled miniature proteins and peptides, or between rhodamine labeled miniature proteins and markers of endocytosis was completed using confocal microscopy. […] Alexafluor-488-transferrin was detected using a 488 nm laser and a 520 nm long pass filter; tetraethylrhodamine and Alexafluor-546-transferrin were detected using a 546 nm laser line and a 580 nm long pass filter, Hoescht 33342 was detected using a 405 nm laser line and a 450 nm long pass filter. […] The fraction of rhodamine signal overlapping with EGFP signal (R E G) was calculated using Mander's coefficient and automatic thresholding. […]

HeLa cells [2] = assay: HPLC analysis of cytosolic extracts prepared with streptolysin O; type: cell-based; settings: HeLa cells treated with rhodamine labeled molecule
Protocol: To generate cytosolic extracts, HeLa cells were treated with streptolysin O (SLO), a well characterized bacterial toxin that creates pores in the plasma membranes of target cells (Walev et al., 2002, FASEB 16:237-239). […] Moreover, when the toxin is added to cultured cells at 4° C. and washed with PBS before raising the temperature to 37° C., pores are created only in the plasma membrane and the release of ER, golgi, or endolysosomal contents are avoided (Androlewicz et al., 1993, Proc Natl Acad Sci USA 90:9130-9134).
First, selective release of the cytoplasmic contents of HeLa cells using the published procedures was verified. HeLa cells were treated with 20 μg/mL SLO in PBS containing 5 mM DTT (20 min, 4° C.), washed (three PBS washes, 150 μL each), resuspended in PBS, and incubated at 37° C. for 15 min, after which 1.5 μM propidium iodide (PI), a marker of permeabilized cell membranes, was added.

HeLa cells [3] = assay: Colocalization with Alexa-488-transferrin (Tf488), live cell confocal microscopy; type: cell-based; settings: 1 μM, 30 min
Protocol: To examine the colocalization of rhodamine labeled miniature proteins or peptides with Alexa-488-transferrin (Tf488), HeLa cells were plated (200 μl, 10^4 cells/well, 96 well glass bottom plates, Matrical) the day prior to experiments. The media was replaced with 150 μL Hepes-Krebs-Ringer's (HKR) buffer (140 mM NaCl, 2 mM KCl, 1 mM CaCl2, 1 mM MgCl2, 10 mM Hepes pH 7.4) containing 1 μM miniature protein or 25 nM Alexa-488-transferrin (Molecular Probes) and the cells incubated at 37° C. for 30 min. The cells were then rinsed twice with 200 μL, HKR buffer and nuclei were labeled by overlaying 200 μL HKR containing 300 nM Hoechst 33342 (Molecular Probes Cat. # H3570) for 5 minutes. Images of cells were acquired using a PerkinElmer LiveView spinning disk confocal microscope fitted with a 60×1.2 NA objective. Colocalization with Rab-GFP fusions was examined in an analogous way using HeLa cells transfected with the appropriate expression plasmid.
Colocalization between rhodamine and fluorescein labeled miniature proteins and peptides, or between rhodamine labeled miniature proteins and markers of endocytosis was completed using confocal microscopy. Live cell confocal microscopy was conducted using a PerkinElmer LiveView spinning disk confocal microscope fitted with heated microscope enclosure (maintained at 37° C.), a 60×1.2 NA objective, laser illumination, a Nipkow CSU-1× spinning disk, and a Hammamatsu CS9100 EMCCD camera operated using Velocity software. Alexafluor-488-transferrin was detected using a 488 nm laser and a 520 nm long pass filter; tetraethylrhodamine and Alexafluor-546-transferrin were detected using a 546 nm laser line and a 580 nm long pass filter, Hoescht 33342 was detected using a 405 nm laser line and a 450 nm long pass filter. Images were processed for presentation by using the ‘subtract background’ option and linear contrast adjustments in Image J. All adjustments were applied uniformly to the entire image. Colocalization analysis was performed using the JACOP plugin (Bolte and Cordelières, 2006), available on the ImageJ website. The fraction of rhodamine signal overlapping with EGFP signal (R E G) was calculated using Mander's coefficient and automatic thresholding. Pearson's correlation coefficient (R) was also obtained using the JACOP plugin.

cathepsin D = cathepsin D (Homo sapiens, UniProt P07339); assay: Resistance to acid proteases: cathepsin D; type: in vitro ADME; settings: 50 pmol, 30 min, 37° C., pH 5
Protocol: (§1) 50 pmol aPPR, 5.2R, 5.3R, ZF5.3R, TatR (SEQ ID NO:67), or Arg8R (SEQ ID NO:68) were incubated with 5 pg cathepsin B, D, or L for 30 min at 37° C. in 10 μL of 20 mM sodium phosphate buffer (pH 5) containing 150 mM NaCl. At the end of the incubation, the reaction was stopped by adding 40 μL of a solution containing a 84:15:1 ratio of water:EtOH:TFA before analysis by HPLC.

HeLa cells [4] = assay: Peptide degradation in HeLa cells, HPLC of whole cell lysates; type: in vitro ADME; settings: 1 μM, 30 min, RIPA lysate
Protocol: Approximately 200,000 HeLa cells were treated with rhodamine labeled cationic miniature proteins and peptides as described for experiments using flow cytometry to measure peptide uptake. These cells were pelleted in 96 well microtitre plates (300 g, 3 min) and lysed in 40 μL RIPA buffer (150 mM NaCl, 50 mM Tris pH 7.4, 50 mM EDTA pH 7.4, 0.1% SDS, 1% Triton X-100) on ice for 30 min. The insoluble material was cleared from the cell lysate via centrifugation (10,000 g, 10 min) and 20 μL of the supernatant was diluted into 400 μL of 15% CH3CN in water. These samples were analyzed via reverse phase HPLC (Shimadzu Instruments) fitted with a fluorescence detector and a C18 column (Poroshell 120 SB-C18, 2.7 μm, 100 mm×3 mm ID, Agilent).

cathepsin L = cathepsin L (Homo sapiens, UniProt P07711); assay: Resistance to acid proteases: cathepsin L; type: in vitro ADME; settings: 50 pmol, 30 min, 37° C., pH 5
Protocol: as §1

HeLa cells [5] = assay: Effects of endocytosis inhibitors on cell uptake, confocal microscopy; type: cell-based; settings: 1 μM rhodamine labeled, 30 min, 37° C.; for effect of EIPA on uptake: 50 μM EIPA; for effect of dynasore on uptake: 80 μM dynasore; for effect of MβCD on uptake: 5 mM MβCD
Protocol: HeLa cells grown for 24 h in glass bottom plates were incubated with HKR buffer, or HKR buffer containing 80 μM dynasore, 50 μM N-ethyl-isopropyl-amiloride, or 5 mM methyl-β-cyclodextrin for 30 min at 37° C. prior to the addition of 1 μM rhodamine-labeled miniature protein or peptide (Tat (SEQ ID NO:67) and Arg8 (SEQ ID NO:68)). The cells were washed twice with DMEM, the nuclei labeled with Hoescht, and images acquired as described above for colocalization experiments.

cathepsin B = cathepsin B (Homo sapiens, UniProt P07858); assay: Resistance to acid proteases: cathepsin B; type: in vitro ADME; settings: 50 pmol, 30 min, 37° C., pH 5
Protocol: as §1

[6] = Circular dichroism thermal melt; type: physicochemical; settings: unlabeled, 25 μM in PBS
Protocol: FIG. 8, comprising FIGS. 8A-8C, depicts the results of circular dichroism (CD) analysis of miniature proteins studied herein. (FIG. 8A) Wavelength dependent CD spectra of miniature proteins at 25 μM concentration in PBS at 37° C. (FIG. 8B) Temperature dependent ellipticity at 222 nm of miniature proteins at 25 μM.
CD spectra of unlabeled aPP-based miniature were recorded from samples containing 25 μM peptide in PBS as described (Luedtke et al., 2007, Nat Chem Biol. 3:779-784). CD spectra of ZF and ZF5.3 in the presence and absence of Zn2+ were recorded from solutions of peptide (12.5-25 μM) dissolved in 10 mM argon-purged Tris-HCL (pH 8.0) in the presence or absence of 0.5 mM dithiothreitol and 2 eq. ZnC12. Samples were incubated for 30 min at RT and analyzed on a Jasco J-810-150S spectropolarimeter. Final plots show background-normalized averages of six scans.

Sequence of cathepsin L (P07711 114-333, species assumed): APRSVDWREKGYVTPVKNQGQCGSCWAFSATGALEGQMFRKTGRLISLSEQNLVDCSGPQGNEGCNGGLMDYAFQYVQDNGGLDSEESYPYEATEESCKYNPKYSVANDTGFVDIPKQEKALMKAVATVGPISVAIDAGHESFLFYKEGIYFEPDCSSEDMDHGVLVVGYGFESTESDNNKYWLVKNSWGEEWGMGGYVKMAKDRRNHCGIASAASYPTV
Sequence of cathepsin D (P07339 65-412, species assumed): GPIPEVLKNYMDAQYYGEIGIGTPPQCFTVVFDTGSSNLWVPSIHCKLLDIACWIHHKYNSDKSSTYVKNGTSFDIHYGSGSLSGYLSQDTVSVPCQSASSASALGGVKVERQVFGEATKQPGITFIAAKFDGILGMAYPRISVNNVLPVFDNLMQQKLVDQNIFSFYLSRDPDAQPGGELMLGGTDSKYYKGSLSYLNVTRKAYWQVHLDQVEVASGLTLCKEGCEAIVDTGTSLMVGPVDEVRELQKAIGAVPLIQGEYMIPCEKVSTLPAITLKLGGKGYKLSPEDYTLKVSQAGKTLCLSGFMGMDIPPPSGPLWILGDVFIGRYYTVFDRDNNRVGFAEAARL

Compound: K^DexGPSQPTYPGDDAPVRDLIRPYRDLQRPLRVVTRHRY (K(dexamethasone)GPSQPTYPGDDAPVRDLIRPYRDLQRPLRVVTRHRY-NH2) [5.2-P2Dex]
- translocation ratio (TR), GR★-GFP (GR★-GFP): 1.35±0.11

Compound: K^DexGPSQPTYPGDDAPVRDLIRPYRDLRRPLNVVTRHRY (K(dexamethasone)GPSQPTYPGDDAPVRDLIRPYRDLRRPLNVVTRHRY-NH2) [5.3-P2Dex]
- translocation ratio (TR), GR★-GFP (GR★-GFP): 1.64±0.27

Compound: K^RhodGPSQPTYPGDDAPVEDLIRFYNDLQQYLNVVTRHRY-NH2 (K(rhodamine)GPSQPTYPGDDAPVEDLIRFYNDLQQYLNVVTRHRY-NH2; reading uncertain; also: printed as K^RhodGPSQPTYPGDDAPVEDLIRFYNDLQQYLNVVTRHRY-NH2) [aPPR]
- cell fluorescence (HeLa cells [1]): low fluorescence
- material found in SLO cytoplasmic extracts (HPLC) (HeLa cells [2]): little to no fluorescent material; also recorded: little or no aPPR is observed
- intracellular red fluorescent signal (HeLa cells [3]): little or no red fluorescent signal

Compound: K^RhodGRKKRRQRRRPPQY-NH2 (K(rhodamine)GRKKRRQRRRPPQY-NH2; reading uncertain; also: printed as K^RhodGRKKRRQRRRPPQY-NH2) [TatR]
- degradation by cathepsin D (HPLC) (cathepsin D): little or no degradation
- degradation during incubation with HeLa cells (HPLC of whole cell lysates) (HeLa cells [4]): numerous additional peaks
- degradation by cathepsin L (HPLC) (cathepsin L): little or no degradation
- effect of EIPA on uptake (HeLa cells [5]): dramatically reduced the uptake
- effect of dynasore on uptake (HeLa cells [5]): completely blocked the uptake
- effect of MβCD on uptake (HeLa cells [5]): completely blocked the uptake
- material found in SLO cytoplasmic extracts (HPLC) (HeLa cells [2]): retention times distinct from the starting material; also recorded: little or no material with the same retention time as the starting material
- degradation by cathepsin B (HPLC) (cathepsin B): little or no degradation
- intracellular red fluorescent signal (HeLa cells [3]): red fluorescent puncta throughout the cytosol

Compound: GPSQPTYPGDDAPVEDLIRFYNDLQQYLNVVTRHRYC^FLU-NH2 (GPSQPTYPGDDAPVEDLIRFYNDLQQYLNVVTRHRYC(fluorescein)-NH2) [aPPF]
- cell fluorescence (HeLa cells [1]): low fluorescence

Compound: CC[C@H](C)[C@H](NC(=O)[C@H](CC(C)C)NC(=O)[C@H](CC(=O)O)NC(=O)[C@H](CCCNC(=N)N)NC(=O)[C@@H](NC(=O)[C@@H]1CCCN1C(=O)[C@H](C)NC(=O)[C@H](CC(=O)O)NC(=O)[C@H](CC(=O)O)NC(=O)CNC(=O)[C@@H]1CCCN1C(=O)[C@H](Cc1ccc(O)cc1)NC(=O)[C@@H](NC(=O)[C@@H]1CCCN1C(=O)[C@H](CCC(N)=O)NC(=O)[C@H](CO)NC(=O)[C@@H]1CCCN1C(=O)CNC(=O)[C@@H](N)CCCCNS(=O)(=O)c1ccc(-c2c3ccc(=[N+](CC)CC)cc-3oc3cc(N(CC)CC)ccc23)c(S(=O)(=O)[O-])c1)[C@@H](C)O)C(C)C)C(=O)N[C@@H](CCCNC(=N)N)C(=O)N[C@@H](Cc1ccccc1)C(=O)N[C@@H](Cc1ccc(O)cc1)C(=O)N[C@@H](CCCNC(=N)N)C(=O)N[C@@H](CC(=O)O)C(=O)N[C@@H](CC(C)C)C(=O)N[C@@H](CCCNC(=N)N)C(=O)N[C@@H](CCCNC(=N)N)C(=O)N[C@@H](Cc1ccc(O)cc1)C(=O)N[C@@H](CC(C)C)C(=O)N[C@@H](CC(N)=O)C(=O)N[C@H](C(=O)N[C@H](C(=O)N[C@H](C(=O)N[C@@H](CCCNC(=N)N)C(=O)N[C@@H](Cc1c[nH]cn1)C(=O)N[C@@H](CCCNC(=N)N)C(=O)N[C@@H](Cc1ccc(O)cc1)C(N)=O)[C@@H](C)O)C(C)C)C(C)C [5.3R] (H-K(X1)GPSQPTYPGDDAPVRDLIRFYRDLRRYLNVVTRHRY-NH2)
- degradation by cathepsin D (HPLC) (cathepsin D): cleaved by cathepsin D
- metabolised at 0.5 h (cathepsin D; isolated enzyme cathepsin other, read-out: disappearance after incubation with cathepsin D): ~50%
- degradation during incubation with HeLa cells (HPLC of whole cell lysates) (HeLa cells [4]): minimal to no cleavage; also recorded: virtually identical to control samples
- degradation by cathepsin L (HPLC) (cathepsin L): traces identical to the parent peptide; also recorded: to a smaller extent
- effect of EIPA on uptake (HeLa cells [5]): dramatically reduced the uptake
- effect of dynasore on uptake (HeLa cells [5]): completely blocked the uptake
- effect of MβCD on uptake (HeLa cells [5]): completely blocked the uptake
- material found in SLO cytoplasmic extracts (HPLC) (HeLa cells [2]): presence of intact 5.3R; also recorded: a single peak with the same retention time as the starting material
- degradation by cathepsin B (HPLC) (cathepsin B): several additional small peaks
- intracellular red fluorescent signal (HeLa cells [3]): red fluorescent puncta throughout the cytosol

Compound: GPSQPTYPGDDAPVRDLRRFYRDLRRYLNVVTRHRYC^acetyl-NH2 (GPSQPTYPGDDAPVRDLRRFYRDLRRYLNVVTRHRYC(Ac)-NH2) [6.3]
- Tm (temperature dependent ellipticity at 222 nm) [6]: 33 °C
